Patent publication US11571481B2, “Peptide-linked drug delivery system” (priority 2020, dated 2023)
“Also recorded” adds a separate entry of the source. Values belong to the compound of their own block, whether it stands above or below them. Where a SMILES comes first, the peptide text is derived from it. [ ]: non-standard residue; d: D form. The star is where a group is joined. X1 = COc1cc2cc(c1Cl)N(C)C(=O)C[C@H](OC(=O)[C@H](C)N(C)C(=O)CCS*)[C@]1(C)O[C@H]1[C@H](C)[C@@H]1C[C@@](O)(NC(=O)O1)[C@H](OC)/C=C/C=C(\C)C2; βAla = NCCC(=O)O; Mpa = O=C(O)CCS

What was measured:
[1] = Immunogenicity assay (plasma cytokines by ELISA); type: in vivo, BALB/c mice; conditions: 5 mg/kg i.v., 4 h after injection
Protocol: Immunogenicity assay—Female BALB/c mice were treated with a single dose of Bdd or LPS (5 mg/kg) via tail-vein injection (n=3/group). Mice administered with PBS were used as a negative control. Blood samples were collected 4 h later via retro-orbital sinus puncture technique, and the concentration of the innate immune and inflammatory cytokines IL1β, IL2, IL6, IL10, TNF-α, and INF-γ in plasma was measured with commercial sandwich enzyme-linked immunosorbent assay kits. ELISA assays were performed according to the manufacturer's instructions (Invitrogen, Carlsbad, Calif.).

[2] = Nephrotoxicity studies (urinary NGAL and KIM-1, kidney histology and IHC); type: in vivo, BALB/c mice; conditions: for induction of KIM-1 and/or NGAL: i.v., at 3 days
Protocol: The level of the acute renal injury biomarkers, neutrophil gelatinase-associated lipocalin (NGAL) and kidney injury molecule-1 (KIM-1) in the urine samples, were measured using ELISA assays according to the manufacturer's instructions (R&D Systems, Minneapolis, Minn.). […] All the animals (n=3/group) were euthanized at the end of the treatment and the kidneys were collected and fixed in 10% neutral buffered formalin. The tissues were then processed, embedded in paraffin, sectioned, and stained with H&E. Immunohistochemistry (IHC) for kidney injury (NGAL and KIM-1) was also performed.

UMUC-3 = test: Cell viability and cytotoxicity assay (CellTiter Glo, 72 h); type: cell-based, human; conditions: UMUC-3, 72 h
Protocol: (§1) Cell viability and cytotoxicity assay—Cancer cells (3×10^3/well) were seeded on a flat bottom 96-well plate overnight. […] CellTiter Glo reagent (Promega, Madison, Wis.) was added in each well (50 μL). The luminescence generated was recorded using a microplate reader (Tecan US Inc., Morrisville, N.C.). The dose response curves were plotted, and the half maximal inhibitory concentrations (IC50 values) were calculated using Graph Pad Prism 6.0 software.

Renca = test: as above; type: cell-based, murine
Protocol: as §1

[3] = Toxicity profile in healthy animals (hematology, serum biochemistry, necropsy); type: in vivo, BALB/c mice; conditions: for hematology (red blood cell, leukocyte, platelet counts, morphology) / histopathology of liver, spleen, heart, lungs, kidneys / serum liver enzymes (ALP, ALT, AST) / urea nitrogen/creatinine ratio: DM1, DM1-Bdd 0.75 mg/kg
Description: At the end of a 3-week treatment, mice were euthanized. The organs/tissues were harvested, fixed in 10% neutral buffered formalin for 2 days. Bones were decalcified in a formic acid solution (Surgipath Decalcifier I; Leica Biosystems, Weltzar, Germany). The samples were then embedded in paraffin, sectioned (5 μm), and stained with H&E for examination by an ACVP board certified anatomic pathologist.
Hematology and biochemistry—Blood samples were collected via cardiac puncture. A complete blood count, including red blood cell, white blood cell, reticulocyte and platelet counts, with an automated differential leukocyte count, was performed using an IDEXX Procyte DX hematology analyzer (iDEXX, Westbrook, Me.). Blood smears were prepared, stained with modified Wright's stain, examined in a blinded fashion by a board-certified veterinary clinical pathologist (T. S.), and imaged using a Nikon Eclipse TE2000-U fluorescent microscope equipped with a photometrics CoolSNAP HQ^2 camera (Nikon Corporation, Tokyo, Japan). The blood was also centrifuged (1,500×G) for 15 min to obtain the serum for biochemical analysis using a Beckman Coulter AU680 analyzer (Beckman Coulter, Brea, Calif.).

panel of BC cell lines = test: Cell viability and cytotoxicity assay (CellTiter Glo, 72 h); type: cell-based
Protocol: as §1

[4] = test system: Renca/GFP-Luc tumors in kidney capsule; test: Evaluation of DM1-Bdd for kidney cancer treatment (syngeneic orthotopic model); type: in vivo, BALB/c mice
Description: The animals were monitored for tumor growth inhibition and survival as described above. Additional mice were used for histopathological analysis (n=4/group).
Slides were then counterstained with Hematoxylin.

[5] = test system: orthotopic human UMUC-3/GFP-Luc bladder tumors; test: Therapeutic efficacy of drug-Bdd conjugates for treating BC (orthotopic xenograft)
Protocol: Therapeutic efficacy of drug-Bdd conjugates for treating BC—Animals were orthotopically implanted with tumors as previously described. Briefly, the urine of 7- to 9-week-old female NSG mice (Jackson Laboratory, Bar Harbor, Me.) was remove through a sterile 24 G pediatric venous catheter (Dublin, Ireland). A trypsin solution (0.125%, 80 μL) was then delivered into the bladder, Subsequently. UMUC-3/GFP-Luc cells (4×10^4 cells) in culture media (50 μL) were transferred into the bladders and allowed for seeding. Tumor progression was monitored by bioluminescence imaging. Luciferin (3 mg) in PBS (100 μL) was given to the animals (via intraperitoneal injection) 15 min prior to performing imaging. […] The therapeutic efficacy was evaluated based on tumor growth inhibition (bioluminescence imaging) and long-term survival.

[6] = μPET/CT imaging and end-point biodistribution study of ^89Zr-peptides; type: in vivo, BALB/c mice
Protocol: μPET/CT imaging and biodistribution study—BALB/c mice were intravenously injected with different ^89Zr-peptide analogues (20 μCi, 100 μL). μPET/CT imaging was performed in animals with and without urine collection prior to the first imaging (n=4/analogue/condition). Whole-body images were acquired 1, 4, and 24 h after injection, using Inveon μPET/CT scanner (Siemens Medical Solutions, Malvern, Pa.). μPET/CT maximum […] projections were processed using Amide v1.0.4 and Inveon Research Workplace software. The radioactivities at different region of interest (ROI) were determined. For end-point biodistribution studies, the mice were euthanized 0.17, 1, 2, 5, and 7 days after treatment with ^89Zr-peptides (n=3/peptide analogue/time point). The radioactivities of the harvested organs were measured using the Wallac Wizard 2 gamma counter. The results were corrected from radioactive decay, and were expressed as a percentage of the injected dose (% ID) or percentage of injected dose per gram of tissue (% ID/g).

[7] = parameters: species or system BALB/c mice; conditions: mouse, in vivo, iv
Protocol: Pharmacokinetic study—BALB/c mice (Jackson Laboratory, Bar Harbor, Me.) were administered with ^89Zr-peptide or free ^89Zr (20 μCi, 100 μL) via tail-vein injections (n=4/condition). Blood samples (20 μL) were collected at various time intervals, using retro-orbital sinus puncture technique. The radioactivities were measured on Wallac Wizard 2 gamma counter (Perkin-Elmer, Waltham, Mass.). The pharmacokinetic models and parameters of ^89Zr-peptides and free ^89Zr, including the serum half-life and the plasma clearance, were estimated by fitting the data for compartmental model selection using PKSolver 2.0 software.

[8] = Fluorescence imaging of Cy-peptide analogues (whole body, urine, ex vivo organs); conditions: i.v. 0.5 nmol, images 1 and 4 h
Protocol: Fluorescence imaging—Female SHO mice (Charles River Laboratories, Wilmington, Mass.) were administered with free Cyanine5.5 or Cy-peptide analogues (0.5 nmol of Cyanine5.5 content measured by UV absorbance at 680 nm) in a PBS (150 μL) via tail-vein injections (n=4/group). Real-time fluorescence imaging was performed using In vivo Xtreme imaging system (Bruker, Billerica, Mass.). Whole body fluorescence images were acquired 1 and 4 h post injection using the appropriate excitation (670 nm) and emission (750 nm) filters. The animals were then euthanized. The organs were excised to perform ex vivo fluorescence imaging. Imaging was also performed on urine samples (50 μL) collected from separate animals 1 h after i.v. injection of free dye or Cy-peptide analogues (n=4/treatment). Bruker MI software was used to process the fluorescence/bright light images and measure the fluorescence intensity in different ROIs. All the data were corrected to eliminate the organ or fluid auto-fluorescence.

[9] = i.v. weekly for 3 weeks, CIS 10 mg/kg
[10] = i.v. 0.75 mg/kg of drug content weekly for 3 weeks

inflammatory cytokine levels (IL-1β, IL-2, IL-6, IL-10, TNF-α, INF-γ) in plasma [1]: no increase
Compound: NCCC(=O)N[C@H](CC(=O)O)C(=O)N[C@H](CC(=O)O)C(=O)NCCC(=O)N[C@H](CC(=O)O)C(=O)N[C@H](CC(=O)O)C(=O)NCCC(=O)N[C@H](CC(=O)O)C(=O)N[C@H](CC(=O)O)C(=O)NCCC(=O)N[C@H](CC(=O)O)C(=O)N[C@H](CC(=O)O)C(N)=O [Bdd] (HELM PEPTIDE1{[bAla].[dD].[dD].[bAla].[dD].[dD].[bAla].[dD].[dD].[bAla].[dD].[dD].[am]}$$$$V2.0; N-terminus assumed)

Compound: COc1cc2cc(c1Cl)N(C)C(=O)C[C@H](OC(=O)[C@H](C)N(C)C(=O)CCS)[C@]1(C)O[C@H]1[C@H](C)[C@@H]1C[C@@](O)(NC(=O)O1)[C@H](OC)/C=C/C=C(\C)C2 [DM1, N2′-deacetyl-N2′-(3-mercapto-1-oxopropyl)-maytansine]
induction of KIM-1 and/or NGAL [2]: continued induction | IC50 values (UMUC-3): nanomolar (nM) range | potency compared to other conventional chemotherapeutics (UMUC-3): more potent than cisplatin (CIS), doxorubicin (DOX) and mitomycin (MIT), and as effective as gemcitabine (GEM) | activity against Renca cell line (Renca): effective | muscle injury (CK activity) ([3]; i.v. weekly for 3 weeks, DM1 0.75 mg/kg, CIS 10 mg/kg): induced muscle injury | hematology (red blood cell, leukocyte, platelet counts, morphology) [3, 9]: reticulocytosis without apparent anemia; also recorded: inflammatory response characterized by increased proportions of neutrophils, monocytes, and platelets | histopathology of liver, spleen, heart, lungs, kidneys [3, 9]: Increased splenic and hepatic EMH | serum liver enzymes (ALP, ALT, AST) [3, 9]: increases | urea nitrogen/creatinine ratio [3, 9]: increases | potency relative to commonly used ITC drugs (MIT, DOX and CIS) (panel of BC cell lines): 100 fold | survival ([4]; either i.v. or i.t., 0.75 mg/kg weekly): died | histological examination of kidneys (tumor) ([4]; one week after completing the treatment course): large and accompanied with an infiltration of mononuclear cells | animal survival compared to i.t. MIT [5, 10]: prolonged animal survival | tumor growth inhibition compared to i.t. MIT [5, 10]: more effective in inhibiting tumor growth | overall survival after 100 days ([5]; i.v. 0.75 mg/kg weekly for 3 weeks): 0%

Compound: COc1cc2cc(c1Cl)N(C)C(=O)C[C@H](OC(=O)[C@H](C)N(C)C(=O)CCSSCCC(=O)NCCC(=O)N[C@H](CC(=O)O)C(=O)N[C@H](CC(=O)O)C(=O)NCCC(=O)N[C@H](CC(=O)O)C(=O)N[C@H](CC(=O)O)C(=O)NCCC(=O)N[C@H](CC(=O)O)C(=O)N[C@H](CC(=O)O)C(=O)NCCC(=O)N[C@H](CC(=O)O)C(=O)N[C@H](CC(=O)O)C(N)=O)[C@]1(C)O[C@H]1[C@H](C)[C@@H]1C[C@@](O)(NC(=O)O1)[C@H](OC)/C=C/C=C(\C)C2 [DM1-Bdd] ([Mpa](X1)[βAla][dD][dD][βAla][dD][dD][βAla][dD][dD][βAla][dD][dD]-NH2)
immunoreactivity of kidney sections for KIM-1 and NGAL compared to PBS ([2]; 3 days after i.v. administration): no elevation of the immunoreactivity | histologic examination of kidneys ([2]; 3 days after i.v. drug administration, CIS 10 mg/kg, DM1-Bdd 0.75 mg/kg): did not reveal any abnormalities | time for urinary KIM-1 and NGAL to return to basal levels ([2]; single i.v. dose 0.75 mg/kg of drug content): ≤ 3 days | urinary KIM-1 and NGAL levels ([2]; single i.v. dose 0.75 mg/kg of drug content, 1 day after injection): slightly increased | hepatotoxicity [3, 10]: not hepatotoxic | hematology (red blood cell, leukocyte, platelet counts, morphology) [3, 9]: did not affect | histopathology of liver, spleen, heart, lungs, kidneys [3, 9]: no morphological evidence of injury | serum liver enzymes (ALP, ALT, AST) [3, 9]: no significant alteration | urea nitrogen/creatinine ratio [3, 9]: normal

Compound: COc1cccc2c1C(=O)c1c(O)c3c(c(O)c1C2=O)C[C@@](O)(C(=O)CO)C[C@@H]3O[C@H]1C[C@H](N)[C@H](O)[C@H](C)O1 [DOX, Doxorubicin]
animal survival ([5]; 5 mg/kg of drug content weekly for 3 weeks): shorter life expectancy compared to the PBS control | drug-induced mortality ([5]; DOX 5 mg/kg weekly): died prior to receiving the final dose

Compound: Nc1ccn([C@@H]2O[C@H](CO)[C@@H](O)C2(F)F)c(=O)n1 [GEM, gemcitabine]
induction of KIM-1 and/or NGAL [2]: continued induction

Compound: CO[C@@]12[C@H](COC(N)=O)C3=C(C(=O)C(C)=C(N)C3=O)N1C[C@@H]1N[C@@H]12 [MIT, Mitomycin]
induction of KIM-1 and/or NGAL [2]: continued induction

Compound: CC(=O)N(O)CCCCCNC(=O)CCC(=O)N(O)CCCCCNC(=O)CCC(=O)N(O)CCCCCNC(=S)Nc1ccc(NC(=S)NCCC(=O)N[C@H](CC(=O)O)C(=O)N[C@H](CC(=O)O)C(=O)NCCC(=O)N[C@H](CC(=O)O)C(=O)N[C@H](CC(=O)O)C(=O)NCCC(=O)N[C@H](CC(=O)O)C(=O)N[C@H](CC(=O)O)C(=O)NCCC(=O)N[C@H](CC(=O)O)C(=O)N[C@H](CC(=O)O)C(N)=O)cc1 [^89Zr-Bdd, metal not drawn] (HELM PEPTIDE1{[CC(=O)N(O)CCCCCNC(=O)CCC(=O)N(O)CCCCCNC(=O)CCC(=O)N(O)CCCCCNC(=S)Nc1ccc(NC(=S)[*:2])cc1].[bAla].[dD].[dD].[bAla].[dD].[dD].[bAla].[dD].[dD].[bAla].[dD].[dD].[am]}$$$$V2.0)
time to excretion into the urine after i.v. administration ([6]; i.v., confirmed by absence of radioactivity in emptied bladders): ≤ 1 h | ID found in kidneys ([6]; mouse, in vivo): 15.1 % ID | ID found in kidneys after 7 days ([6]; mouse, in vivo): 2.1 % ID | peptide in major organs or blood circulation ([6]; mouse, in vivo, iv): No peptide in major organs or blood circulation was detected | terminal half-life ([7]; BALB/c): 31.8 min | plasma clearance [7]: rapid

elimination route / main organ uptake by fluorescence imaging [8]: mainly taken up by the liver
Compound: Cyanine5.5
